Data set [1] relates to U87 glioblastoma cells. As to the kind of experiment: Cell migration assay (modified Boyden chamber), U87. In kind it is cell-based, human. From the text:
(§1) The ATCC (American Type Culture Collection, Rockville, MD, United States) cancer cell lines U87 (glioblastoma), MDA-MB231 (breast cancer) and LS174 (colon adenocarcinoma) were routinely cultured in DMEM supplemented with 10% fœtal bovine serum (FBS), 1% l-glutamine and 100 IU/mL penicillin/streptomycin. […] Rat SK2 cDNA cloned into pJA5 plasmid was a gift from Dr. Skolnik (university Langone Medical center, New York). Human SK3 cDNA cloned into Pipru vector was a king gift from Pr. Soriani (Université Côte d’Azur, CNRS, Inserm, Nice, France).
(§2) Cell migration assay was performed using modified Boyden chamber (NeuroProbe Inc., Bethesda, MD, United States) as previously described ([Sarray et al., 2007]). Membranes were coated with fibrinogen (Fg) (50 μg/mL), fibronectin (Fn) (10 μg/mL), collagen type I (Coll-I) (50 μg/mL) for U87, MDA-MB231 and LS174 cells respectively, for 2 h at 37°C. Cells were harvested as a single cell suspension (10^6 cells/mL) and treated with P01 at 50 μg/mL. Then added to pre-coated membranes and allowed to migrate for 5 h at 37°C in Boyden chamber. Cells were fixed on the underside of the membrane, stained by 0.1% crystal violet and migration was quantified by measuring the absorbance at 560 nm using a spectrophotometer (Thermo-Multiskan EX, Shanghai, China).

Data set [2] concerns SK2 currents of U87 cells. Nature of the data set: Whole-cell patch clamp, K+ currents of U87 cells. The settings on record: P01 125 pM vs Leidab-7 50 nM, ns between treatments. In kind it is cell-based, human. From the text: For U87 cells, whole-cell K^+ currents were generated by stepwise 8 mV depolarizing pulses from a constant holding potential of −90 up to +60 mV. The composition of extracellular solution is the same as that described above and the intracellular pipette solution is as follows in mM: K-glutamate 125, KCl 20, MgCl2 1, Mg-ATP 1, HEPES 10, CaCl2 0.7, EGTA 1, and pH was adjusted to 7.2 with KOH. The pCa is of 6.4 (10^−6.4 M of calcium concentration). Leidab-7 (Tocris, France) was used as reference peptide to selectively block SK2 currents in U87 cells.
Background: In patch-clamp work, channel activity is measured electrically.

In the next data set the test system is β3 integrin. Nature of the data set: U87 cell adhesion in presence of anti-integrin antibodies, β3. Format: cell-based, human. The settings on record: 50 μg/mL P01, 30 min pre-incubation, 2 h at 37°C, anti-β3 (1/200), n = 3. The method, then:
(§3) To study the implication of integrins in the P01 peptide activity, adhesion assays using anti-integrin blocking antibodies: anti- α1β1 (1/200), anti- αvβ3 (1/200), anti- α5 (1/200) and anti- β3 (1/200) were performed as described above, except that cells were pretreated with the active peptide P01 at 50 μg/mL.

In a further data set the test system is α1β1 integrin. As to the kind of experiment: U87 cell adhesion in presence of anti-integrin antibodies, α1β1. In kind it is cell-based, human. The settings on record: 50 μg/mL P01, 30 min pre-incubation, 2 h at 37°C, anti-α1β1 (1/200), n = 3. The method, then: as §3
The subject of data set [3] is apamin-sensitive receptor (SKCa channels). The settings on record: selective blocker of SKCa channels displaced; previously reported, ref Zerrouk et al., 1996; cited from earlier work. An excerpt:
Our team has initiated the fractionation of Aa scorpion venom, in order to identify scorpion peptides targeting potassium channels involved in the oncological process. Thus, we succeeded to isolate one peptide well represented in this venom. Based on its N-terminal sequence and its mass fingerprint this peptide corresponded to the P01 toxin, previously described by ([Zerrouk et al., 1996]).

Data set [4] concerns LS174 colon adenocarcinoma cells. As to the kind of experiment: Cell migration assay (modified Boyden chamber), LS174. Format: cell-based, human. The settings on record: 50 μg/mL, 5 h, collagen type I 50 μg/mL coating, n = 3.
From the text: as §1, §2

For data set [5] the test system is unchanged. As to the kind of experiment: Cell viability (MTT), LS174. Format: cell-based, human. To be noted: 25–200 μg/mL, 24 h, 10,000 cells per well, n = 3.
From the text: as §1
(§4) The human cell lines U87, MDA-MB231, or LS174 (10,000 cells per well) were treated with P01 peptide at different concentrations (25; 50; 100 and 200 μg/mL). After 24 h, the wells were washed with phosphate-buffered saline (PBS) and then the 3-(4,5-dimethylthiazol-2-yl)-2,5-diphenyltetrazolium bromide (MTT) (0.5 mg/mL) was added to the cells as previously described ([Kouba et al., 2020]). The crystals formed after the reduction of MTT by mitochondrial dehydrogenases were dissolved with dimethylsulfoxyde (DMSO). The quantification of live cells was achieved by measuring absorbance at 560 nm using a spectrophotometer (Thermo-Multiskan EX, Shanghai, China).

The test system of another data set is SK2 channel. The settings on record: Jurkat cells; ref Shakkottai et al., 2001; cited from earlier work. From the text: (§5) This can be explained by the differential expression of either functional SK2 isoforms or other membrane receptors between HEK293 and Jurkat cells.
The subject of the next data set is SK3 channel. The settings on record: Jurkat cells; ref Shakkottai et al., 2001; cited from earlier work.
From the text: as §5

For data set [6], the system named is U87 glioblastoma cells. As to the kind of experiment: Cell viability (MTT), U87. In kind it is cell-based, human. The settings on record: 25–200 μg/mL, 24 h, 10,000 cells per well, n = 3.
From the text: as §1, §4

For data set [7], the system named is MDA-MB231 breast cancer cells. As to the kind of experiment: Cell viability (MTT), MDA-MB231. In kind it is cell-based, human. To be noted: 25–200 μg/mL, 24 h, 10,000 cells per well, n = 3.
From the text: as §1, §4

In data set [8] the test system is LS174 colon adenocarcinoma cells. As to the kind of experiment: Cell proliferation test (crystal violet), LS174. The settings on record: 2–10 μg/mL, 72 h, n = 3. In kind it is cell-based, human.
From the text: as §1
(§6) The effect of the P01 peptide on cell proliferation was studied. The human cell lines U87, MDA-MB231 or LS174 (5,000 cells per well) were treated with 2; 5 and 10 μg/mL of P01 peptide. The plates were placed at 37°C for 72 h. Cellular proliferation was quantified at 560 nm by a spectrophotometer (Thermo-Multiskan EX, Shanghai, China) after treatment with 1% glutaraldehyde and staining with 0.1% crystal violet.
(§7) Every 24 h, a series of wells was washed with PBS, the cells were fixed with 1% glutaraldehyde, and preserved in PBS to follow the kinetics of proliferation. After 72 h, the cells were stained with crystal violet 0.1% and quantified by measuring the absorbance at 560 nm using a spectrophotometer (Thermo-Multiskan EX, Shanghai, China).

Data set [9] deals with MDA-MB231 breast cancer cells. As to the kind of experiment: Cell proliferation test (crystal violet), MDA-MB231. In kind it is cell-based, human. To be noted: 2–10 μg/mL, 72 h, n = 3.
From the text: as §1, §6, §7

Values after ≈ are worked out from the molar mass of the structure shown. Where a SMILES comes first, the peptide text is derived from it. Bridges are numbered along the chain shown (N, C = ends).

In the data set on U87 glioblastoma cells [1] (50 μg/mL, 5 h at 37°C, fibrinogen 50 μg/mL coating, n = 3), `CC[C@H](C)[C@H](NC(=O)[C@@H]1CCCN1C(=O)[C@H](CCC(=O)O)NC(=O)[C@@H]1CSSC[C@@H]2NC(=O)[C@H](Cc3c[nH]cn3)NC(=O)[C@H](CCC(=O)O)NC(=O)[C@@H]3CCCN3C(=O)[C@@H]3CSSC[C@H](NC(=O)[C@H](CCCCN)NC(=O)[C@H](CC(=O)O)NC(=O)[C@H](CC(N)=O)NC(=O)[C@H](CC(=O)O)NC(=O)[C@H](CSSC[C@H](NC(=O)[C@H](CO)NC(=O)[C@@H](N)C(C)C)C(=O)N[C@@H](CCC(=O)O)C(=O)N[C@@H](CC(=O)O)C(=O)N3)NC(=O)[C@H](CCCCN)NC(=O)[C@H](C)NC(=O)[C@H](CCC(N)=O)NC(=O)[C@H](C)NC(=O)[C@H](CCCCN)NC(=O)[C@H](CCC(N)=O)NC(=O)[C@H]([C@@H](C)O)NC(=O)[C@H](CO)NC2=O)C(=O)N[C@@H](C(C)C)C(=O)N1)C(=O)O` [P01] (H-VSCEDCPEHCSTQKAQAKCDNDKCVCEPI-OH; disulfide 3-19, 6-24, 10-26 (inferred); N-terminus and C-terminus assumed) returned an inhibition of migration of 48%. Moreover, in the data set on U87 glioblastoma cells [1] (Boyden chamber, 5 h), the “IC50 (migration)” value came out at 50 µg/mL (≈ 15.7 µM). Moreover, in [2], the “current density-voltage relationship compared with Leidab-7” value is “similar”. The “effect on cell adhesion through β3” value in the data set with β3 integrin is reported as “not able to alter cell adhesion”. Moreover, in the data set with α1β1 integrin, the “effect on adhesive function of α1β1” value was “reduced the adhesive function”. In data set [3], the “inhibition of 125I-apamin binding” value was “inhibit the binding of ^125I-apamin”. Also, in data set [4], the effect on migration result is “no effect”. In addition, the “cytotoxic effect (cell viability)” value (in data set [5]; in the data set on U87 glioblastoma cells [6]; in [7]) was “did not have a cytotoxic effect” throughout. Also, the “blocking activity on SK2” value in the data set with SK2 channel is reported as “little or no blocking activity”. For the same compound, the “blocking activity on SK3” value with SK3 channel is “little or no blocking activity”. The “effect on cell proliferation” value in data set [8] and in data set [9] was “no effect” throughout.
